# Source: ChEMBL document CHEMBL1914447, “Novel orally active antimalarial thiazoles” (J Med Chem, 2011)
# Experiments:
# [1] = Lipophilicity, log D of the compound by gradient HPLC at pH 3.0; format: physicochemical; details: buffer
# [2] = Lipophilicity, log D of the compound by gradient HPLC at pH 7.4; format: physicochemical; details: buffer
# [3] = Kinetic solubility of the compound by nephelometry at pH 2.0; format: physicochemical; details: buffer, read-out: Kinetic_solubility
# [4] = Kinetic solubility of the compound by nephelometry at pH 6.5; format: physicochemical; details: buffer, read-out: Kinetic_solubility
# Plasmodium falciparum [5] = test: microbe, parasite or virus in culture; details: K1
# Plasmodium falciparum [6] = test: microbe, parasite or virus in culture; details: NF54
# Liver microsomes [7] = test: Metabolic stability in human liver microsomes at 1 uM by LC-MS analysis; format: ADME, Microsome
# Liver microsomes [8] = test: Metabolic stability in rat liver microsomes at 1 uM by LC-MS analysis; format: ADME, Microsome
# Liver = test: Metabolic stability in mouse liver microsomes at 1 uM by LC-MS analysis; format: ADME, Microsome
# Plasmodium berghei [9] = test: Antimalarial activity against GFP-transfected Plasmodium berghei ANKA infected in NMRI mouse assessed as mean survival time at 30 mg/kg, po administered as single dose; format: functional
# Plasmodium berghei [10] = test: Antimalarial activity against GFP-transfected Plasmodium berghei ANKA infected in NMRI mouse assessed as mean survival time at 10 mg/kg, po administered as single dose; format: functional
# Plasmodium berghei [11] = test: Antimalarial activity against GFP-transfected Plasmodium berghei ANKA infected in po dosed NMRI mouse assessed as reduction in parasitemia administered as single dose after 72 hrs by flow cytometry; format: functional
# Plasmodium berghei [12] = test: Antimalarial activity against GFP-transfected Plasmodium berghei ANKA infected in NMRI mouse assessed as mean survival time at 100 mg/kg, po administered as single dose; format: functional
# Plasmodium berghei [13] = test: Antimalarial activity against GFP-transfected Plasmodium berghei ANKA infected in NMRI mouse assessed as reduction in parasitemia at 10 mg/kg, po administered as single dose after 72 hrs by flow cytometry; format: functional; set-up: scale not given: the % may be the effect or the level left
# Plasmodium berghei [14] = test: Antimalarial activity against GFP-transfected Plasmodium berghei ANKA infected in NMRI mouse assessed as reduction in parasitemia at 30 mg/kg, po administered as single dose after 72 hrs by flow cytometry; format: functional; set-up: scale not given: the % may be the effect or the level left
# Plasmodium berghei [15] = test: Antimalarial activity against GFP-transfected Plasmodium berghei ANKA infected in NMRI mouse assessed as reduction in parasitemia at 100 mg/kg, po administered as single dose after 72 hrs by flow cytometry; format: functional; set-up: scale not given: the % may be the effect or the level left
Compound,chromatographic logD [1],chromatographic logD [2],solubility kinetic [3],solubility kinetic [4],IC50 (Plasmodium falciparum [5]),IC50 (Plasmodium falciparum [6]),Stability (Liver microsomes [7]),Stability (Liver microsomes [8]),Stability (Liver),MSD (Plasmodium berghei [9]),MSD (Plasmodium berghei [10]),ED50 (Plasmodium berghei [11]),ED90 (Plasmodium berghei [11]),MSD (Plasmodium berghei [12]),Activity (Plasmodium berghei [13]),Activity (Plasmodium berghei [14]),Activity (Plasmodium berghei [15])
NCc1csc(NC(=O)c2ncccn2)n1,-0.2,-0.1,> 100 µg/mL,> 100 µg/mL,> 42.5 µM,> 42.5 µM,,,,,,,,,,,
CC(C)(C)c1cc(C(=O)Nc2ccccn2)n(Cc2ccccc2)n1,4.5,4.5,25 µg/mL,6.3 µg/mL,10.2 µM,10.5 µM,Unstable,Unstable,Unstable,,,,,,,,
CCN(CC)CCCC(C)Nc1ccnc2cc(Cl)ccc12 (centres undefined) [CHLOROQUINE],,,,,,,,,,9 days,7 days,1.9 mg/kg,4.2 mg/kg,12 days,99.5%,99.7%,>99.9%
CC(C)(C)c1cc(C(=O)Nc2cccc(CN)c2)n(Cc2ccccc2)n1,2.2,2.9,> 100 µg/mL,25 µg/mL,1.47 µM,2.15 µM,Stable,Stable,Stable,,,,,,,,
C[C@H]1[C@H](OC(=O)CCC(=O)O)O[C@@H]2O[C@@]3(C)CC[C@H]4[C@H](C)CC[C@@H]1[C@@]24OO3 [ARTESUNATE],,,,,0.003 µM,0.004 µM,,,,,,,,,,,
NCc1csc(NC(=O)c2ccn[nH]2)n1,0,0.1,> 100 µg/mL,> 100 µg/mL,> 44.8 µM,> 44.8 µM,,,,,,,,,,,
CC(C)(C)c1cc(C(=O)Nc2ccccc2)n(Cc2ccccc2)n1,4.7,4.7,1.6 µg/mL,1.6 µg/mL,11 µM,7.92 µM,Unstable,Unstable,Unstable,,,,,,,,
Cc1csc(NC(=O)c2cc(C(C)(C)C)nn2Cc2ccccc2)n1,4.7,4.7,< 1.6 µg/mL,< 1.6 µg/mL,4.94 µM,4.12 µM,Unstable,Unstable,Unstable,,,,,,,,
COc1ccc(C(=O)Nc2nc(CN)cs2)cc1,0.9,1.2,50 µg/mL,25 µg/mL,11.1 µM,13.1 µM,,,,,,,,,,,
CN(C)Cc1csc(NC(=O)c2cc(C(C)(C)C)nn2Cc2ccccc2)n1,2.6,4.2,> 100 µg/mL,25 µg/mL,1.48 µM,2.41 µM,Unstable,Unstable,Unstable,,,,,,,,
NCc1csc(NC(=O)c2cc3ccccc3[nH]2)n1,1.1,1.4,> 100 µg/mL,25 µg/mL,22.2 µM,30.4 µM,,,,,,,,,,,
CNCc1csc(NC(=O)c2cc(C(C)(C)C)nn2Cc2ccccc2)n1,2.6,3.8,25 µg/mL,12.5 µg/mL,0.19 µM,0.16 µM,Stable,Stable,Stable,,,,,,,,
NCc1csc(NC(=O)c2cnnn2Cc2ccccc2)n1,1.3,1.6,> 100 µg/mL,50 µg/mL,> 3.18 µM,> 3.18 µM,,,,,,,,,,,
NCc1csc(NC(=O)c2ccon2)n1,0,-0.1,50 µg/mL,50 µg/mL,> 44.6 µM,> 44.6 µM,,,,,,,,,,,
CC(C)(C)c1cc(C(=O)Nc2ccncc2)n(Cc2ccccc2)n1,2.6,4,> 100 µg/mL,6.3 µg/mL,7.05 µM,3.88 µM,Unstable,Unstable,Unstable,,,,,,,,
CC(C)(C)c1cc(C(=O)Nc2cccnc2)n(Cc2ccccc2)n1,3.5,3.8,> 100 µg/mL,6.3 µg/mL,6.45 µM,4.99 µM,Unstable,Unstable,Unstable,,,,,,,,
NCc1csc(NC(=O)c2cn(Cc3ccccc3)nn2)n1,1.1,1.4,50 µg/mL,25 µg/mL,> 3.18 µM,> 3.18 µM,,,,,,,,,,,
NCc1csc(NC(=O)c2ccccc2)n1,0.7,1,> 100 µg/mL,25 µg/mL,42.9 µM,> 42.9 µM,,,,,,,,,,,
NCc1csc(NC(=O)c2cnn[nH]2)n1,-0.2,-0.3,> 100 µg/mL,> 100 µg/mL,> 44.6 µM,> 44.6 µM,,,,,,,,,,,
NCc1csc(NC(=O)c2cccnn2)n1,0,0.2,> 100 µg/mL,50 µg/mL,42.5 µM,> 42.5 µM,,,,,,,,,,,
NCc1csc(NC(=O)c2ccc(Cl)cc2)n1,1.2,1.6,> 100 µg/mL,25 µg/mL,37.5 µM,> 37.5 µM,,,,,,,,,,,
CC(C)(C)c1cc(C(=O)Nc2nc(CNS(C)(=O)=O)cs2)n(Cc2ccccc2)n1,3.7,3.7,3.1 µg/mL,3.1 µg/mL,2.93 µM,4.68 µM,Unstable,Unstable,Unstable,,,,,,,,
NCc1csc(NC(=O)c2cc3ccccc3n2Cc2ccccc2)n1,2.4,3,25 µg/mL,1.6 µg/mL,6.98 µM,10.3 µM,,,,,,,,,,,
NCc1csc(NC(=O)c2cc3ccccc3o2)n1,1.1,1.5,> 100 µg/mL,50 µg/mL,36.6 µM,> 36.6 µM,,,,,,,,,,,
CC(=O)NCc1csc(NC(=O)c2cc(C(C)(C)C)nn2Cc2ccccc2)n1,3.3,3.3,12.5 µg/mL,12.5 µg/mL,4.27 µM,6.24 µM,Unstable,Unstable,Unstable,,,,,,,,
Cn1nc(C(C)(C)C)cc1C(=O)Nc1nc(CN)cs1,1.2,1.6,> 100 µg/mL,50 µg/mL,34.1 µM,> 34.1 µM,,,,,,,,,,,
CC(C)(C)c1cc(C(=O)Nc2nc(CO)cs2)n(Cc2ccccc2)n1,3.5,3.4,12.5 µg/mL,3.1 µg/mL,0.67 µM,0.71 µM,Unstable,Unstable,Unstable,,,,,,,,
NCc1csc(NC(=O)c2ccccn2)n1,0.3,0.7,> 100 µg/mL,> 100 µg/mL,> 42.7 µM,> 42.7 µM,,,,,,,,,,,
